Laboratory results as given in patent US11858877B2 (priority 2019, dated 2024).

Experiments:
IKKγ = test: Western blot of IKKγ expression in CRISPR-modified U2OS cells; assay type: cell-based, human; details: Actin-corrected band intensity
Procedure: U2OS cells (parental and expressing EGFP-RelA/IKKγ via CRISPR Knock-in) were cultured for 24 hrs in complete growth medium. After treatments, cells were lysed in SDS-based lysis buffer consisting of 120 mM Tris-Cl, pH 6.8, 4% SDS supplemented with protease and phosphatase inhibitors at 4° C. for 30 min. Protein extracts were clarified by centrifugation at 4° C. at 12,000×g for 10 min. Lysate protein levels were quantified by BCA assay (Pierce). Samples were separated by SDS-PAGE, 25 μg total protein per lane, then transferred to PVDF membranes. Blocking was done in 5% milk in TBS for 1 hour. Primary antibodies directed at RelA and β-actin (#4764 and #3700 respectively; Cell Signaling Technology), IKKγ and GAPDH (sc-8330 and sc25778 respectively; Santa Cruz) were diluted in 5% milk in TBS-T and incubated overnight at 4° C. Alexa 680/800-conjugated secondary antibodies (LICOR) were used in combination with an Odyssey (LI-COR) scanner for detection and quantification of band intensities.

mature TNFR1 complex = test: Live-cell imaging of FP-IKK puncta in TNF-stimulated U2OS cells; assay type: cell-based, human; details: pretreated with compound before 100 ng/mL TNF
Procedure: (§1) Live cells were imaged in an environmentally controlled chamber (37° C., 5% CO2) on a DeltaVision Elite microscope equipped with a pco.edge sCMOS camera and an Insight solid-state illumination module (GE). U2OS cells expressing FP-RelA/IKKγ were seeded at a density of 25000 cells/well 24 hours prior to live-cell imaging experiments on no. 1.5 glass bottom 96 well imaging plates (Matriplate). For imaging of FP-RelA nuclear translocation, live-cells were pre-treated with DMSO or indicated concentrations of compounds for 2 hours before exposure to either 100 ng/ml recombinant human TNF (Peprotech) or 100 ng/ml recombinant human IL1β (Peprotech). Wide-field epifluorescence and DIC images were collected using a 20× […] objective (0.45NA; Olympus). Cells were imaged for at least 30 minutes prior to addition of compounds. For detection of IKKγ puncta, live-cells were pre-treated with DMSO or indicated concentration of compounds for 2 hours before exposure to 100 ng/ml TNF. Wide-field epifluorescence and DIC images were collected using a 60× […] objective. […] Time-lapse images were collected over at least 4 fields per condition with a temporal resolution of 5 minutes per frame. Quantification of nuclear FP-RelA localization and the formation IKKγ puncta from flat-field and background corrected images was performed using customized scripts in Matlab and ImageJ.

U2OS cells = test: Compound toxicity comparison, LIVE/DEAD Cell Imaging Kit; assay type: cell-based, human; details: 10 μM, 2 h, 16 h or 24 h
Procedure: Cytotoxicity of the three compounds was compared with Bay 11-7082 (Cayman, 10010266), an inhibitor of the NF-κB pathway at working concentrations of 1-10 μM, using the LIVE/DEAD Cell Imaging Kit (488/570) (Invitrogen, R37601). For each condition, 15,000 U2OS cells were seeded in 200 μL of growth medium in each well of 96-well plate 48 h before microscopy. Next, medium was changed to medium containing either DMSO, 10 μM of indicated compound, or 10 μM of Bay 11-7082 for the indicated duration (2 h, 16 h, or 24 h). Before imaging, medium was changed to phenol red-free FluoBrite DMEM (Gibco, A18967-01) containing 300 ng/mL of Hoechst 33342, and 1:10000 of both Live Green and Dead Red dyes of the LIVE/DEAD Cell Imaging Kit. Cells were incubated for 60 minutes and imaged on the Delta Vision Elite imaging system at 20× magnification with a […] objective (0.45NA; Olympus). Analysis was done using Cell Profiler to segment cells and quantify median nuclear intensity values. Further analysis was performed using custom scripts in MATLAB. Data from biological triplicates were plotted as the mean ± SD.

full length TRAF2 = target: T1, full length TRAF2 (Homo sapiens, UniProt Q12933); test: Fluorescence-based thermal shift assay of TRAF2; assay type: binding; details: 1 uM GST-TRAF2, melt curve 25-99° C.
T1 construct: dose-dependent stabilizing effect on full length TRAF2; purchased Rockland
T1 sequence (Q12933 1-501): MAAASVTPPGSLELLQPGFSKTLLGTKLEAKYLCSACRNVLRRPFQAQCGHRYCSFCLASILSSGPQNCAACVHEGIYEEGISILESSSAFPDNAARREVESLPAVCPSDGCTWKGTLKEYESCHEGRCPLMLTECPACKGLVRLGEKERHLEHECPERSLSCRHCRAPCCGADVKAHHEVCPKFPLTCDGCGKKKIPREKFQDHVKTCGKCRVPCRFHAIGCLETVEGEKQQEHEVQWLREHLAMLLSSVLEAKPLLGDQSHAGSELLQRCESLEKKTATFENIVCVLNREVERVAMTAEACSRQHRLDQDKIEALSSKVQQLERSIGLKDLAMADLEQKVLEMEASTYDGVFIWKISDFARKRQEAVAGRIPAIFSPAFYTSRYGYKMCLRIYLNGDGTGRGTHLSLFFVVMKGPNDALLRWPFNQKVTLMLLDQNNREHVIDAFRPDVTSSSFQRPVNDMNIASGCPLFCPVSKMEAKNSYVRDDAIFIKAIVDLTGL
Procedure: To test whether the compounds interact with TRAF2 in vitro, the thermal stability of purified TRAF2 in the presence of each compound was measured.
TRAF2—compound interactions were measured by fluorescence-based thermal shift using an Applied Biosystems ABI QuantStudio(TM) 6 Flex System. […] PCR plates were covered with optical seal, shaken, and centrifuged after protein and compounds were added. The instrument was programmed in the Melt Curve mode and the Standard speed run. The reporter was selected as Rox and None for the quencher. Each melt curve was programmed as follows: 25° C. for 2 min, followed by a 0.05° C. increase per second from 25° C. to 99° C., and finally 99° C. for 2min. Fluorescence intensity was collected continuously. In the Melt Curve Filter section, X4 (580 ±10)-M4 (623±14) was selected for the Excitation Filter-Emission Filter. The raw data was extracted in MS-Excel format.

[1] = target: T2, recombinant activated IKKβ (Homo sapiens, UniProt O14920); test: In vitro IKKβ kinase assay (ADP-Glo); assay type: biochemical; details: for IKKβ kinase activity: at 10-fold higher concentrations than used in cell-based experiments; for inhibitory activity over IKKβ kinase activity: at the concentrations used in this study
T2 construct: purchased Promega V4502
T2 sequence (O14920 1-756): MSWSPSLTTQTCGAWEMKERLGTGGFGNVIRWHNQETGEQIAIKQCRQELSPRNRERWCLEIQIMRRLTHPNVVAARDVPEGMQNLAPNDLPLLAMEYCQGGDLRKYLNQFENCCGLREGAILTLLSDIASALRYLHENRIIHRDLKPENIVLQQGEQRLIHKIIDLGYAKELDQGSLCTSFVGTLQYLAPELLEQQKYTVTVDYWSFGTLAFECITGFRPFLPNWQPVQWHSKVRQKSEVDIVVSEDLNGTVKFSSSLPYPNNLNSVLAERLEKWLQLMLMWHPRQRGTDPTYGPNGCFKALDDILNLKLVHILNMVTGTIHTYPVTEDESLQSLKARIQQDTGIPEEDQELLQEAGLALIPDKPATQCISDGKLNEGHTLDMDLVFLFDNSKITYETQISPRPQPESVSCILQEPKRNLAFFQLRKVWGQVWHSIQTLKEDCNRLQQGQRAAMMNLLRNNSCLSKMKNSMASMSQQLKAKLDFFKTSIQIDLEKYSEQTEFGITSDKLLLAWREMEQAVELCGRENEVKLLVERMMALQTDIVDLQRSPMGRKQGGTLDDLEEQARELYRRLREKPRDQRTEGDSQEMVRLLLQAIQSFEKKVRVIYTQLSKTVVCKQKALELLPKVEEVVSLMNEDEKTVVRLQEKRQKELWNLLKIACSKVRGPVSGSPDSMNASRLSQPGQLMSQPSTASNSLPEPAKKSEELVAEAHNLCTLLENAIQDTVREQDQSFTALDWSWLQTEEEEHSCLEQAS
Procedure: 1× kinase buffer A (40 mM Tris-HCl pH 7.4, 20 mM MgCl2, 0.1 mg/mL BSA, supplemented with 2 mM MnCl2, 2 mM DTT and 100 μM Sodium vanadate) was used to prepare all components of the reaction. All components were prepared in a 96-well plate and transferred to every other well of a 384-well opaque plate (Sigma-Aldrich, CLS3825-10EA) using a multichannel pipet. A 2.5× ATP/IKKtide substrate mix (62.5 μM ATP mixed with 0.5 μg/μL IKKtide) was prepared, and a 5× concentration of the indicated concentration of compounds in 0.5% DMSO, maintaining a final DMSO concentration of 0.1% in all reactions. […] The plate was briefly spun, and the reaction incubated at room temperature for 1 h. Next, 5 μL of ADP-Glo reagent were added to each well, spun and incubated for 40 minutes at room temperature. Finally, 10 μL of Kinase Detection Reagent were added to each well and incubated for 30 minutes at room temperature. Luminescence from each well was measured using an integration time of 500 ms in a M4 microplate reader (SpectraMax). Data from triplicate reactions were extracted and plotted.

[2] = system: IL1-induced dynamics of nuclear NF-kB; test: Live-cell imaging of IL1-induced nuclear FP-RelA (NF-kB) dynamics in U2OS cells; assay type: cell-based, human; details: 10 μM compound, 100 ng/mL IL1
Procedure: Live cells were imaged in an environmentally controlled chamber (37° C., 5% CO2) on a DeltaVision Elite microscope equipped with a pco.edge sCMOS camera and an Insight solid-state illumination module (GE). U2OS cells expressing FP-RelA/IKKγ were seeded at a density of 25000 cells/well 24 hours prior to live-cell imaging experiments on no. 1.5 glass bottom 96 well imaging plates (Matriplate). For imaging of FP-RelA nuclear translocation, live-cells were pre-treated with DMSO or indicated concentrations of compounds for 2 hours before exposure to either 100 ng/ml recombinant human TNF (Peprotech) or 100 ng/ml recombinant human IL1β (Peprotech). Wide-field epifluorescence and DIC images were collected using a 20× […] objective (0.45NA; Olympus). […] Quantification of nuclear FP-RelA localization and the formation IKKγ puncta from flat-field and background corrected images was performed using customized scripts in Matlab and ImageJ.
For permutation tests, data from the TNF-only and the indicated experimental condition were combined and randomly distributed into ‘Permuted control’ and ‘Permuted experimental’ bins without replacement, preserving the size of the original control and experimental data sets. 10^6 permutations were performed and the difference between the means of permuted control and experimental data were calculated for each condition to generate a histogram. […]

[3] = system: TNF-induced nuclear translocation of NF-kB; test: Live-cell imaging of TNF-induced nuclear FP-RelA (NF-kB) translocation in single U2OS cells; assay type: cell-based, human; details: for Maximum fold change (Max) of nuclear FP-RelA / area under the fold change curve (AUC) of nuclear FP-RelA: 10 μM compound pretreatment before addition of TNF; for potency in restricting the signaling network upstream of NF-kB activation: TNF-stimulated U2OS FP-RelA cells; for nuclear mobilization of NF-kB: U2OS FP-RelA cells pre-treated with compound before exposure to TNF
Procedure: Rep., 22:585-599 (2018)).
To quantify the compounds' effect on NF-kB dynamics, each single-cell trajectory was decomposed into a series of descriptors (FIG. 3c) that transmit information within the cell about extracellular cytokine concentrations (Zhang et al., Cell. Syst., 5:638-645 e635 (2017)).
as §1
For permutation tests, data from the TNF-only and the indicated experimental condition were combined and randomly distributed into ‘Permuted control’ and ‘Permuted experimental’ bins without replacement, preserving the size of the original control and experimental data sets. 10^6 permutations were performed and the difference between the means of permuted control and experimental data were calculated for each condition to generate a histogram. Two-tailed p-values were determined by computing the fraction of permuted data sets where Δmeanpermuted≥Δmeanunpermuted (FIGS. 12, 13, and 15).

Row | Structure (SMILES) | overall expression level of IKKγ (IKKγ) | number of TNF-induced FP-IKK puncta (mature TNFR1 complex) | cytotoxicity (fraction of surviving cells) (U2OS cells) | dose-dependent stabilizing effect on full length TRAF2 (thermal shift) (full length TRAF2) | IKKβ kinase activity [1] | inhibitory activity over IKKβ kinase activity [1] | IL1-induced dynamics of nuclear NF-kB vs IL1-only control cells [2] | Maximum fold change (Max) of nuclear FP-RelA [3] | area under the fold change curve (AUC) of nuclear FP-RelA [3] | potency in restricting the signaling network upstream of NF-kB activation [3] | nuclear mobilization of NF-kB [3]
1 | CC(C)CN1CCN(C(=O)COC(=O)c2ccc(S(C)(=O)=O)c([N+](=O)[O-])c2)CC1 [Compound 2] | reduced | greatly reduced | low cytotoxicity | subtle | not inhibited | no direct inhibitory activity | indistinguishable | significantly less | significantly less | low micromolar potency | reduced with increasing concentration
2 | CCC(OC(=O)c1ccc(S(C)(=O)=O)c([N+](=O)[O-])c1)C(=O)NC1C2CC3CC(C2)CC1C3 (stereo not shown) [Compound 3] | reduced | greatly reduced | low cytotoxicity | moderate | not inhibited | no direct inhibitory activity | indistinguishable | significantly less | significantly less | low micromolar potency | reduced with increasing concentration
